Measurements: ChEMBL document CHEMBL5154728, “Design and synthesis of novel quinazolinone derivatives as anti-HBV agents with TLR8 agonist effect” (Eur J Med Chem, 2022)

Experiments:
[1] = Cytotoxicity against human HepG2 2.2.15 cells infected with Hepatitis B virus assessed as reduction in cell growth by CCK8 assay; format: toxicity, cell-based
[2] = Antiviral activity against Hepatitis B virus infected in human HepG2 2.2.15 cells assessed as inhibition of DNA replication; format: functional, cell-based
[3] = Selectivity index, ratio of CC50 for human HepG2.2.2.15 cells to IC50 for Hepatitis B virus infected in human HepG2.2.2.15 cells; format: toxicity, cell-based; conditions: read-out: Selectivity Index
[4] = Antiviral activity against lamivudine/entecavir- resistant Hepatitis B virus infected in human HepG2 A64 cells assessed as inhibition of DNA replication; format: functional, cell-based
[5] = tested on: Hepatitis B virus; experiment: Antiviral activity against lamivudine/entecavir-resistant Hepatitis B virus infected in human HepG2 A64 cells assessed as inhibition of DNA replication at 1 uM incubated for 72 hrs by RT PCR analysis; format: functional, organism-based; conditions: for IC50: HepG2.A64, 72 h; for inhibition at 1 µM: HepG2.A64, dose 1 µM, time 72 hrs
[6] = tested on: Hepatitis B virus; experiment: Antiviral activity against wild type Hepatitis B virus infected in human HepG2.2.2.15 cells assessed as inhibition of DNA replication at 1 uM incubated for 72 hrs by RT PCR analysis; format: functional
[7] = target: T1, Toll-like receptor 8 (Homo sapiens) (UniProt Q9NR97); experiment: Agonist activity at human TLR8 expressed in HEK293T cells co-transfected with NFKappaB luciferase and renilla plasmids assessed as NF-kappaB activation measured after 48 hrs by dual-luciferase reporter gene assay; format: cell-based; conditions: filed as agonist, DDE = dose-dependent effect
T1 sequence (whole entry): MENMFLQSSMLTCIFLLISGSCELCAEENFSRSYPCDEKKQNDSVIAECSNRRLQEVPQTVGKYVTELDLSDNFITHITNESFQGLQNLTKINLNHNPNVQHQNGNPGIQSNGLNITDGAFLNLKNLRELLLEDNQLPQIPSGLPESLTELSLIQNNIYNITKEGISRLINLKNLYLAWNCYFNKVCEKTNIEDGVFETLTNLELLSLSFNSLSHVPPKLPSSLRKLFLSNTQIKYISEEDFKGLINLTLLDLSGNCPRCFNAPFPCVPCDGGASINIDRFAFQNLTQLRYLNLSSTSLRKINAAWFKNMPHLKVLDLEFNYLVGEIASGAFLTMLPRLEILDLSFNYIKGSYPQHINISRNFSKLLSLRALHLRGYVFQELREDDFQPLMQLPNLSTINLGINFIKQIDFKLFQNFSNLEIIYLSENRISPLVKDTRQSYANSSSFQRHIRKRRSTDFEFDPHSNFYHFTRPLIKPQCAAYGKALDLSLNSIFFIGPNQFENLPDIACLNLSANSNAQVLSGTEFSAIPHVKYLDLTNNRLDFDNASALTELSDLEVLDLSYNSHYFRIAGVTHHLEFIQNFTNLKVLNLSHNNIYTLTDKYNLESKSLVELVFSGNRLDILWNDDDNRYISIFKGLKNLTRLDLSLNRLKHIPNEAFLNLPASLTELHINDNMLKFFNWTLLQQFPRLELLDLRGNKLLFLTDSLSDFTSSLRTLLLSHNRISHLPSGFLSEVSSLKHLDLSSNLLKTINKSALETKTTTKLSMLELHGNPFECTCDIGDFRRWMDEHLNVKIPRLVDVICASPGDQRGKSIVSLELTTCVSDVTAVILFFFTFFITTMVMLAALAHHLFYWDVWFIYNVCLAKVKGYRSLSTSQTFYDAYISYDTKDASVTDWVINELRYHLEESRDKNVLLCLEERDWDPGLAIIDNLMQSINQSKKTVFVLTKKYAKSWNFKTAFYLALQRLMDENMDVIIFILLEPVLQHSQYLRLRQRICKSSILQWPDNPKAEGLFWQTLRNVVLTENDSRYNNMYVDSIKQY

[8] = Selectivity index, ratio of CC50 for human HepG2.2.2.15 cells to IC50 for lamivudine/entecavir-resistant Hepatitis B virus infected in human HepG2 A64 cells; format: toxicity, cell-based; conditions: HepG2.2.2.15 cells (CC50), read-out: Selectivity Index

IC50 [2] [nM] | Structure (SMILES) | CC50 [1] [nM] | selectivity ratio [3] | also measured
– | Nc1nccc(OCCCOc2ccc3nc(SCc4cccc(F)c4)n(Cc4ccccc4)c(=O)c3c2)n1 | > 10000 | – | –
700 | O=c1c2cc(OCCCN3CCC(O)CC3)ccc2nc(SCc2ccccc2)n1Cc1ccco1 | > 10000 | > 14.3 | –
– | O=c1c2cc(OCCCN3CCC(O)CC3)ccc2nc(SCc2ccc(F)cc2)n1Cc1ccco1 | > 10000 | – | –
– | Nc1nccc(OCCCCOc2ccc3nc(SCc4ccccc4)n(Cc4ccco4)c(=O)c3c2)n1 | > 10000 | – | –
– | Nc1nccc(OCCCOc2ccc3nc(SCc4ccccc4)n(Cc4ccccc4)c(=O)c3c2)n1 | > 10000 | – | –
– | COc1ccccc1CSc1nc2ccc(OCCCN3CCC(O)CC3)cc2c(=O)n1Cc1ccco1 | > 10000 | – | –
990 | CN1CCN(CCCOc2ccc3nc(SCc4cccc(F)c4)n(Cc4ccco4)c(=O)c3c2)CC1 | 4220 | > 4.26 | –
– | COc1ccccc1CSc1nc2ccc(OCCCN3CCN(C)CC3)cc2c(=O)n1Cc1ccco1 | > 10000 | – | –
– | Nc1nccc(OCCOc2ccc3nc(SCc4ccccc4)n(Cc4ccco4)c(=O)c3c2)n1 | 1250 | – | –
870 | O=c1c2cc(OCCCN3CCC(O)CC3)ccc2nc(SCc2cccc(F)c2)n1Cc1ccco1 | 1830 | > 2.17 | –
830 | CCN(CC)CCOc1ccc2nc(SCc3ccccc3)n(Cc3cccs3)c(=O)c2c1 | > 10000 | 22.9 | –
– | Nc1nccc(OCCCOc2ccc3nc(SCc4ccccc4)n(Cc4cccs4)c(=O)c3c2)n1 | > 10000 | – | –
– | Nc1nccc(OCCCOc2ccc3nc(SCc4ccccc4)n(CC4CCCCC4)c(=O)c3c2)n1 | > 10000 | – | –
– | Nc1nccc(OCCCOc2ccc3nc(SCc4ccc(F)cc4)n(Cc4ccccc4)c(=O)c3c2)n1 | > 10000 | – | –
630 | CN1CCN(CCCOc2ccc3nc(SCc4ccccc4)n(Cc4ccco4)c(=O)c3c2)CC1 | > 10000 | > 15.9 | –
– | CN1CCN(CCCOc2ccc3nc(SCc4ccc(F)cc4)n(Cc4ccco4)c(=O)c3c2)CC1 | 2900 | – | –

Structure (SMILES) | IC50 [2] [nM] | CC50 [1] [nM] | selectivity ratio [3] | also measured
Nc1ccn([C@@H]2CS[C@H](CO)O2)c(=O)n1 [LAMIVUDINE] | < 100 | > 100000 | > 1000 | IC50 [4]: > 100000 nM
COc1ccccc1CSc1nc2ccc(OCCCOc3ccnc(N)n3)cc2c(=O)n1Cc1ccco1 | 150 | > 10000 | > 66.7 | IC50 [5]: 100 nM; inhibition at 1 µM [5]: 77.3%; inhibition at 1 µM [6]: 80.9%; Activity [7]: Dde; IC50 [4]: 100 nM; selectivity ratio [8]: > 100
Nc1nccc(OCCCOc2ccc3nc(SCc4ccccc4)n(Cc4ccco4)c(=O)c3c2)n1 | 310 | > 10000 | > 32.2 | IC50 [5]: 240 nM; inhibition at 1 µM [5]: 75.3%; inhibition at 1 µM [6]: 79.3%; IC50 [4]: 210 nM; selectivity ratio [8]: > 41.7
